This note sets out measurements from ChEMBL document CHEMBL1687911, “Design, synthesis, and biological evaluation of novel carbohydrate-based sulfamates as carbonic anhydrase inhibitors” (J Med Chem, 2011).

The target in the assay is Carbonic anhydrase 9 (Homo sapiens, UniProt Q16790). Kind of assay: Inhibition of human carbonic anhydrase 9 catalytic domain by CO2 hydration assay.
The Ki is the equilibrium dissociation constant of an inhibitor or competing ligand from its target. A high value points to lower affinity. For `CC(=O)O[C@@H]1O[C@H](COS(N)(=O)=O)[C@@H](OC(C)=O)[C@H](OC(C)=O)[C@H]1OC(C)=O`, the Ki turned out to be 73 nM.

Consider `CCC(=O)O[C@@H]1O[C@H](COS(N)(=O)=O)[C@@H](OC(=O)CC)[C@H](OC(=O)CC)[C@H]1OC(=O)CC`, for which the affinity corresponds to a Ki of 77 nM.

Compound `CC(=O)O[C@@H]1O[C@H](COS(N)(=O)=O)[C@H](OC(C)=O)[C@H](OC(C)=O)[C@H]1OC(C)=O` showed a Ki of 75 nM. The Ki values of the last two compounds are within 1.5-fold of each other.

With `CC(=O)O[C@@H]1O[C@H](COS(N)(=O)=O)[C@@H](OC(C)=O)[C@H](OC(C)=O)[C@@H]1OC(C)=O`, the Ki turned out to be 7.8 nM.

`CC(=O)OC[C@H]1O[C@@H](OC(C)=O)[C@H](OC(C)=O)[C@@H](OC(C)=O)[C@@H]1O[C@H]1O[C@H](COS(N)(=O)=O)[C@@H](OC(C)=O)[C@H](OC(C)=O)[C@H]1OC(C)=O` came in with a Ki of 631 nM.

`CO[C@H]1O[C@H](COS(N)(=O)=O)[C@@H](OC(C)=O)[C@H](OC(C)=O)[C@H]1OC(C)=O`: the Ki is 8.4 nM.

In turn, `NS(=O)(=O)OC[C@H]1OC(O)[C@H](O)[C@@H](O)[C@@H]1O` (some centres not stated) registered a Ki of 8.6 nM.

For the compound `NS(=O)(=O)OC[C@H]1OC(O)[C@H](O)[C@@H](O)[C@H]1O` (some centres not stated), the affinity, expressed as Ki, was 62 nM.

Compound `NS(=O)(=O)OC[C@H]1OC(O)[C@@H](O)[C@@H](O)[C@@H]1O` (some centres not stated) registered a Ki of 53 nM.

Compound `NS(=O)(=O)OC[C@H]1O[C@H](O[C@H]2[C@H](O)[C@@H](O)[C@H](O)O[C@@H]2CO)[C@H](O)[C@@H](O)[C@@H]1O` showed a Ki of 497 nM.

The compound `CO[C@H]1O[C@H](COS(N)(=O)=O)[C@@H](O)[C@H](O)[C@H]1O` showed a Ki of 9 nM. This Ki lies about 55-fold lower than the previous one.

Compound `CC(=O)OC[C@H]1O[C@@H](S(N)(=O)=O)[C@H](OC(C)=O)[C@@H](OC(C)=O)[C@H]1OC(C)=O` gave a Ki of 4150 nM.
